Test results taken from US20190352276A1, “INHIBITORS OF BRUTON'S TYROSINE KINASE” (Joint Stock Company "Biocad", priority 2016, published 2019).

Experiment: Chemical stability in artificial gastric fluid (SGF without enzymes); also: time not given here
Conditions: 10 μM in SGF without enzymes, pH=1.4, 37° C.

Compound	Amount of substance in the sample in % (chemical stability) [%]
C=CC(=O)N1CCC[C@@H](n2nc(-c3ccc(C(=O)Nc4cc(C(F)(F)CC)ccn4)cc3)c3cncc(F)c32)C1 [BCD-BTK -214, (R)-4-(1-(1-acryloylpiperidin-3-yl)-7-fluoro-1H-pyrazolo[4,3-c]pyridin-3-yl)-N-(4-(1,1-difluoropropyl)pyridin-2-yl)benzamide]	100
C=CC(=O)N1CCC[C@@H](n2nc(-c3ccc(Oc4cccnc4C(N)=O)cc3)c3cncc(F)c32)C1 [BCD-BTK - 255, (R)-3-(4-(1-(1-acryloylpiperidin-3-yl)-7-fluoro-1H-pyrazolo[4,3-c]pyridin-3-yl)phenoxy)picolinamide]	100
CC#CC(=O)N1CC[C@H](n2nc(-c3ccc(C(=O)Nc4ccccn4)cc3)c3cncc(Cl)c32)C1 [BCD-BTK-271, (S)-4-(1-(1-(but-2-ynoyl)pyrrolidin-3-yl)-7-chloro-1H-pyrazolo[4,3-c]pyridin-3-yl)-N-(pyridin-2-yl)benzamide]	100
C=CC(=O)N1CCC[C@@H](n2nc(-c3ccc(Oc4ccncc4C#N)cc3)c3cncc(F)c32)C1 [BCD-BTK -217, (R)-4-(4-(1-(1-acryloylpiperidin-3-yl)-7-fluoro-1H-pyrazolo[4,3-c]pyridin-3-yl)phenoxy)nicotinonitrile]	95.3
C=CC(=O)N1CCC[C@@H](n2nc(-c3ccc(C(=O)Nc4ccc(F)cn4)cc3)c3cncc(C#N)c32)C1 [BCD-BTK-227, (R)-4-(1-(1-acryloylpiperidin-3-yl)-7-cyano-1H-pyrazolo[4,3-c]pyridin-3-yl)-N-(5-fluoropyridin-2-yl)benzamide]	100
C=CC(=O)N1CCC[C@@H](n2nc(-c3ccc(C(=O)Nc4cc(C(F)(F)F)ccn4)cc3)c3c(N)ncc(Cl)c32)C1 [BCD-BTK - 251, (R)-4-(1-(1-acryloylpiperidin-3-yl)-4-amino-7-chloro-1H-pyrazolo[4,3-c]pyridin-3-yl)-N-(4-(trifluoromethyl)pyridin-2-yl)benzamide]	100
C=CC(=O)N1CC(n2nc(-c3ccc(Oc4ccncc4)cc3)c3cncc(Cl)c32)C1 [BCD-BTK - 282, 1-(3-(7-chloro-3-(4-(pyridin-4-yloxy)phenyl)-1H-pyrazolo[4,3-c]pyridin-1-yl)azetidin-1-yl)prop-2-en-1-one]	100
C=CC(=O)N1CCC[C@@H](n2nc(-c3cnc(C(=O)Nc4cc(C(F)(F)CC)ccn4)nc3)c3cncc(Cl)c32)C1 [BCD-BTK - 293, (R)-5-(1-(1-acryloylpiperidin-3-yl)-7-chloro-1H-pyrazolo[4,3-c]pyridin-3-yl)-N-(4-(1,1-difluoropropyl)pyridin-2-yl)pyrimidine-2-carboxamide]	98.4
C=CC(=O)N1CCC[C@@H](n2nc(-c3cnc(-n4ccc(=O)c(C#N)c4)nc3)c3cncc(Cl)c32)C1 [BCD-BTK -206, (R)-1-(5-(1-(1-acryloylpiperidin-3-yl)-7-chloro-1H-pyrazolo[4,3-c]pyridin-3-yl)pyrimidin-2-yl)-4-oxo-1,4-dihydropyridine-3-carbonitrile]	100
C=CC(=O)N1CCC[C@@H](n2nc(-c3cnc(-n4ccc(=O)c(C(N)=O)c4)nc3)c3cncc(Cl)c32)C1 [BCD-BTK -207, (R)-1-(5-(1-(1-acryloylpiperidin-3-yl)-7-chloro-1H-pyrazolo[4,3-c]pyridin-3-yl)pyrimidin-2-yl)-4-oxo-1,4-dihydropyridine-3-carboxamide]	100
C=CC(=O)N1CCC[C@@H](n2nc(-c3ccc(C(=O)Nc4ccccn4)cc3)c3cncc(Cl)c32)C1 [BCD-BTK -201]	100
C=CC(=O)N1CC(Cn2nc(-c3ccc(C(=O)Nc4ccccn4)cc3)c3cncc(Cl)c32)C1 [BCD-BTK-276, 4-(7-chloro-1-{[1-(prop-2-enoyl)azetidin-3-yl]methyl}-1H-pyrazolo[4,3-c]pyridin-3-yl)-N-(pyridin-2-yl)benzamide]	100
C=CC(=O)N1CCC[C@@H](n2nc(-c3ccc(C(=O)Nc4cc(C(F)(F)CC)ccn4)cc3)c3cncc(Cl)c32)C1 [BCD-BTK -215, (R)-4-(1-(1-acryloylpiperidin-3-yl)-7-chloro-1H-pyrazolo[4,3-c]pyridin-3-yl)-N-(4-(1,1-difluoropropyl)pyridin-2-yl)benzamide]	100
CC#CC(=O)N1CC[C@@H](Cn2nc(-c3ccc(C(=O)Nc4ccccn4)cc3)c3cncc(Cl)c32)C1 [BCD-BTK - 286, (R)-4-(1-((1-(but-2-ynoyl)pyrrolidin-3-yl)methyl)-7-chloro-1H-pyrazolo[4,3-c]pyridin-3-yl)-N-(pyridin-2-yl)benzamide]	100
CC#CC(=O)N1CC[C@@H](n2nc(-c3ccc(C(=O)Nc4ccccn4)cc3)c3cncc(Cl)c32)C1 [BCD-BTK-262, (R)-4-(1-(1-(but-2-ynoyl)pyrrolidin-3-yl)-7-chloro-1H-pyrazolo[4,3-c]pyridin-3-yl)-N-(pyridin-2-yl)benzamide]	100
C=CC(=O)N1CCC[C@@H](n2nc(-c3ccc(Oc4ccncc4)cc3)c3cncc(Cl)c32)C1 [BCD-BTK - 125, (R)-1-(1-acryloylpiperidin-3-yl)-7-chloro-3-(4-(pyridin-4-yloxy)phenyl)-1H-pyrazolo[4,3-c]pyridine]	100
C=CC(=O)N1CCC[C@@H](n2nc(-c3ccc(Oc4ccncc4C(N)=O)cc3)c3cncc(Cl)c32)C1 [BCD-BTK -203, (R)-4-(4-(1-(1-acryloylpiperidin-3-yl)-7-chloro-1H-pyrazolo[4,3-c]pyridin-3-yl)phenoxy)nicotinamide]	100
C=CC(=O)N1CCC[C@@H](n2nc(-c3ccc(Oc4ccncc4C#N)cc3)c3cncc(Cl)c32)C1 [BCD-BTK -202, (R)-4-(4-(1-(1-acryloylpiperidin-3-yl)-7-chloro-1H-pyrazolo[4,3-c]pyridin-3-yl)phenoxy)nicotinonitrile]	95.5
C=CC(=O)N1CCC[C@@H](n2nc(-c3ccc(-n4ccc(=O)cc4)c(F)c3)c3cncc(Cl)c32)C1 [BCD-BTK -205, (R)-1-(4-(1-(1-acryloylpiperidin-3-yl)-7-chloro-1H-pyrazolo[4,3-c]pyridin-3-yl)-2-fluorophenyl)pyridin-4(1H)-one]	100
C=CC(=O)N1CCC[C@@H](n2nc(-c3ccc(Oc4ccncc4)cc3)c3c(N)ncc(C#N)c32)C1 [BCD-BTK - 134, (R)-1-(1-acryloylpiperidin-3-yl)-4-amino-3-(4-(pyridin-4-yloxy)phenyl)-1H-pyrazolo[4,3-c]pyridin-7-carbonitrile]	100
C=CC(=O)N1CCC[C@@H](n2nc(-c3ccc(C(=O)Nc4cc(C(F)(F)F)ccn4)cc3)c3cncc(Cl)c32)C1 [BCD-BTK -210, (R)-4-(1-(1-acryloylpiperidin-3-yl)-7-chloro-1H-pyrazolo[4,3-c]pyridin-3-yl)-N-(4-(trifluoromethyl)pyridin-2-yl)benzamide]	96.1
